Laboratory results reported in PubChem BioAssay AID1918941 (Molecular Pharmacology Branch, DTP, NCI, 2023).

Test system: SW 1271 complex spheroids, viability
Assay: Anticancer human tumor SW 1271 cell line growth inhibition [LSD1];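 further: spheroids exposed to agents for 7 days before luminescence read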;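 on viability, T/C: 100% = DMSO vehicle control viability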
Conditions: for IC50: curve of first compound; for viability, T/C: stronger effect = lower value
Method in brief: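 Multicellular complex spheroids of tumor cells with human endothelial cells (HUVEC) and mesenchymal stem cells; the LSD1 inhibitor iadademstat was combined with standard-of-care or investigational agents. Top concentration at or near clinical Cmax, half-log dilutions; final DMSO ≤0.25%.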

[1] = second compound 0.1 µM, first compound 0.00949 µM
[2] = second compound 0.1 µM, first compound 0.03 µM
[3] = second compound 0.1 µM, first compound 0.0949 µM
[4] = second compound 0.1 µM, first compound 0.3 µM
[5] = second compound 0.316 µM, first compound 0.00949 µM
[6] = second compound 0.316 µM, first compound 0.03 µM
[7] = second compound 0.316 µM, first compound 0.0949 µM
[8] = second compound 0.316 µM, first compound 0.3 µM
[9] = second compound 1 µM, first compound 0.00949 µM
[10] = second compound 1 µM, first compound 0.03 µM
[11] = second compound 1 µM, first compound 0.0949 µM
[12] = second compound 1 µM, first compound 0.3 µM
[13] = second compound 3.16 µM, first compound 0.00949 µM
[14] = second compound 3.16 µM, first compound 0.03 µM
[15] = second compound 3.16 µM, first compound 0.0949 µM
[16] = second compound 3.16 µM, first compound 0.3 µM
[17] = second compound 10 µM, first compound 0.00949 µM
[18] = second compound 10 µM, first compound 0.03 µM
[19] = second compound 10 µM, first compound 0.0949 µM
[20] = second compound 10 µM, first compound 0.3 µM

## CCN(c1cc(-c2ccc(CN3CCOCC3)cc2)cc(C(=O)NCc2c(C)cc(C)[nH]c2=O)c1C)C1CCOCC1 + NC1CC1c1ccc(-c2cccc(O)c2)cc1
Second compound 0.1 µM
  IC50: > 3000 nM
Second compound 0.316 µM
  IC50: > 3000 nM
Second compound 1 µM
  IC50: > 3000 nM
Second compound 3.16 µM
  IC50: > 3000 nM
Second compound 10 µM
  IC50: > 3000 nM
[1]
  viability, T/C: 83.2%
[2]
  viability, T/C: 82.9%
[3]
  viability, T/C: 86%
[4]
  viability, T/C: 72.4%
Second compound 0.1 µM, first compound 0.949 µM
  viability, T/C: 68.2%
Second compound 0.1 µM, first compound 3 µM
  viability, T/C: 60%
[5]
  viability, T/C: 83.9%
[6]
  viability, T/C: 82.2%
[7]
  viability, T/C: 74.6%
[8]
  viability, T/C: 72.4%
Second compound 0.316 µM, first compound 0.949 µM
  viability, T/C: 71.3%
Second compound 0.316 µM, first compound 3 µM
  viability, T/C: 57.3%
[9]
  viability, T/C: 82.1%
[10]
  viability, T/C: 78.4%
[11]
  viability, T/C: 83.8%
[12]
  viability, T/C: 64.8%
Second compound 1 µM, first compound 0.949 µM
  viability, T/C: 59.4%
Second compound 1 µM, first compound 3 µM
  viability, T/C: 56.3%
[13]
  viability, T/C: 80.6%
[14]
  viability, T/C: 85.1%
[15]
  viability, T/C: 78.1%
[16]
  viability, T/C: 65.7%
Second compound 3.16 µM, first compound 0.949 µM
  viability, T/C: 63.7%
Second compound 3.16 µM, first compound 3 µM
  viability, T/C: 56.2%
[17]
  viability, T/C: 66.9%
[18]
  viability, T/C: 66.8%
[19]
  viability, T/C: 64.8%
[20]
  viability, T/C: 51.8%
Second compound 10 µM, first compound 0.949 µM
  viability, T/C: 58.7%
Second compound 10 µM, first compound 3 µM
  viability, T/C: 58.2%

## Nc1ncn(C2CC(O)C(CO)S2)c(=O)n1 (stereo not given) + NC1CC1c1ccc(-c2cccc(O)c2)cc1
Second compound 0.1 µM
  IC50: > 300 nM
Second compound 0.316 µM
  IC50: > 300 nM
Second compound 1 µM
  IC50: > 300 nM
Second compound 3.16 µM
  IC50: > 300 nM
Second compound 10 µM
  IC50: > 300 nM
Second compound 0.1 µM, first compound 0.000949 µM
  viability, T/C: 90.1%
Second compound 0.1 µM, first compound 0.003 µM
  viability, T/C: 91.7%
[1]
  viability, T/C: 82%
[2]
  viability, T/C: 76.2%
[3]
  viability, T/C: 82%
[4]
  viability, T/C: 63%
Second compound 0.316 µM, first compound 0.000949 µM
  viability, T/C: 79.2%
Second compound 0.316 µM, first compound 0.003 µM
  viability, T/C: 83.6%
[5]
  viability, T/C: 86.3%
[6]
  viability, T/C: 67.9%
[7]
  viability, T/C: 53.5%
[8]
  viability, T/C: 57.8%
Second compound 1 µM, first compound 0.000949 µM
  viability, T/C: 85.3%
Second compound 1 µM, first compound 0.003 µM
  viability, T/C: 73.3%
[9]
  viability, T/C: 75.6%
[10]
  viability, T/C: 65.3%
[11]
  viability, T/C: 64.4%
[12]
  viability, T/C: 67.5%
Second compound 3.16 µM, first compound 0.000949 µM
  viability, T/C: 70.5%
Second compound 3.16 µM, first compound 0.003 µM
  viability, T/C: 79.4%
[13]
  viability, T/C: 79.1%
[14]
  viability, T/C: 62.3%
[15]
  viability, T/C: 60.8%
[16]
  viability, T/C: 58.8%
Second compound 10 µM, first compound 0.000949 µM
  viability, T/C: 66.4%
Second compound 10 µM, first compound 0.003 µM
  viability, T/C: 65.1%
[17]
  viability, T/C: 60.9%
[18]
  viability, T/C: 66.5%
[19]
  viability, T/C: 62.7%
[20]
  viability, T/C: 58.9%

## O=C(C=Cn1cnc(-c2cc(C(F)(F)F)cc(C(F)(F)F)c2)n1)NNc1cnccn1 + NC1CC1c1ccc(-c2cccc(O)c2)cc1
Second compound 0.1 µM
  IC50: 140 nM
Second compound 0.316 µM
  IC50: 148 nM
Second compound 1 µM
  IC50: 88.9 nM
Second compound 3.16 µM
  IC50: 171 nM
Second compound 10 µM
  IC50: 195 nM
Second compound 0.1 µM, first compound 0.00316 µM
  viability, T/C: 79%
Second compound 0.1 µM, first compound 0.01 µM
  viability, T/C: 70.9%
Second compound 0.1 µM, first compound 0.0316 µM
  viability, T/C: 66.7%
Second compound 0.1 µM, first compound 0.1 µM
  viability, T/C: 49.3%
Second compound 0.1 µM, first compound 0.316 µM
  viability, T/C: 45.3%
Second compound 0.1 µM, first compound 1 µM
  viability, T/C: 21.6%
Second compound 0.316 µM, first compound 0.00316 µM
  viability, T/C: 68.7%
Second compound 0.316 µM, first compound 0.01 µM
  viability, T/C: 74.1%
Second compound 0.316 µM, first compound 0.0316 µM
  viability, T/C: 64.8%
Second compound 0.316 µM, first compound 0.1 µM
  viability, T/C: 51.7%
Second compound 0.316 µM, first compound 0.316 µM
  viability, T/C: 42%
Second compound 0.316 µM, first compound 1 µM
  viability, T/C: 19.4%
Second compound 1 µM, first compound 0.00316 µM
  viability, T/C: 73%
Second compound 1 µM, first compound 0.01 µM
  viability, T/C: 64.1%
Second compound 1 µM, first compound 0.0316 µM
  viability, T/C: 69.5%
Second compound 1 µM, first compound 0.1 µM
  viability, T/C: 41.3%
Second compound 1 µM, first compound 0.316 µM
  viability, T/C: 39.7%
Second compound 1 µM, first compound 1 µM
  viability, T/C: 23.7%
Second compound 3.16 µM, first compound 0.00316 µM
  viability, T/C: 73.9%
Second compound 3.16 µM, first compound 0.01 µM
  viability, T/C: 77.3%
Second compound 3.16 µM, first compound 0.0316 µM
  viability, T/C: 76.1%
Second compound 3.16 µM, first compound 0.1 µM
  viability, T/C: 53.3%
Second compound 3.16 µM, first compound 0.316 µM
  viability, T/C: 43.1%
Second compound 3.16 µM, first compound 1 µM
  viability, T/C: 23.4%
Second compound 10 µM, first compound 0.00316 µM
  viability, T/C: 71.2%
Second compound 10 µM, first compound 0.01 µM
  viability, T/C: 73.6%
Second compound 10 µM, first compound 0.0316 µM
  viability, T/C: 68.1%
Second compound 10 µM, first compound 0.1 µM
  viability, T/C: 55.3%
Second compound 10 µM, first compound 0.316 µM
  viability, T/C: 45.8%
Second compound 10 µM, first compound 1 µM
  viability, T/C: 28%
